The first assay has as its target T1, USP28 (His-tagged USP28-FL-mammalian) (Homo sapiens, UniProt Q96RU2).
T1 construct: Expression of USP28 (1-1077)-TEV-6*His (pTT5 vector) was carried out in Expi293f cells; made in house; host or cells: Expi293F cells (pTT5 vector)
T1 sequence (Q96RU2 1-1077): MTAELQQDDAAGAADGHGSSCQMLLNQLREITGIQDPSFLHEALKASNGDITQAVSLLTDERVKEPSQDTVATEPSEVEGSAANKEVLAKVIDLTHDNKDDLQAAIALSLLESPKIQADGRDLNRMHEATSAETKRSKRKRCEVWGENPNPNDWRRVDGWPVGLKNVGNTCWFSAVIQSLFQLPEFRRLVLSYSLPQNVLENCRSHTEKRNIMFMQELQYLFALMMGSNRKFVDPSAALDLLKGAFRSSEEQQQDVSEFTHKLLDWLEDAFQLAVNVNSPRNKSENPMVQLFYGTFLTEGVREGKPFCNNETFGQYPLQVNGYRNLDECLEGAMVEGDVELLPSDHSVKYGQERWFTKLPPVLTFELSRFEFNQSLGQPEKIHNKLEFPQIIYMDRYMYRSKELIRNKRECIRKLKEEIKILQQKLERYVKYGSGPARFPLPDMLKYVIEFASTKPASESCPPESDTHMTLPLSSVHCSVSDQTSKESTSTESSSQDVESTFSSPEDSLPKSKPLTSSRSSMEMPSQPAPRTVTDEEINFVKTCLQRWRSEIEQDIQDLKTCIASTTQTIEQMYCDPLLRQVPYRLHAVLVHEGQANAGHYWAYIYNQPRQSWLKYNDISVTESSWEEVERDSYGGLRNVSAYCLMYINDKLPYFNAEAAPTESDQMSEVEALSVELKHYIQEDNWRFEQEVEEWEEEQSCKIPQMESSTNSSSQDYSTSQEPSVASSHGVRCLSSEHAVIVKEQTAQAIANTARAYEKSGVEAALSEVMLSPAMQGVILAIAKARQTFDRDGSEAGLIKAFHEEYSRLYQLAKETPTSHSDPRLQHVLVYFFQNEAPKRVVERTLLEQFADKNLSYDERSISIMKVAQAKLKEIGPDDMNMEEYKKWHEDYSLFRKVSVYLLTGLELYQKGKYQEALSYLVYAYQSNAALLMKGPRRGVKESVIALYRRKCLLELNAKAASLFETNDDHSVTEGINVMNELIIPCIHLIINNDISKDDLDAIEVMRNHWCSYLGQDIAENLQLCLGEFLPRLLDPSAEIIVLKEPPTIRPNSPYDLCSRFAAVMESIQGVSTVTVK
Nature of the assay: Ubiquitin-Rhodamine 110 Assay for USP28 Activity, Example A-1(a). The assay is classed as biochemical. The settings on record: Ubiquitin-Rhodamine 110 biochemical assay, read-out: USP28 A-1(a) IC50 range. The method, boiled down: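 IC50s were fitted with a 4-parameter logistic to percent inhibition relative to no-enzyme and DMSO controls, using Rhodamine 110 fluorescence (485/535 nm) released from 25 nM Ub-Rh110. The enzyme was Expi293F-expressed USP28-FL-His at […], preincubated 30 min with compound (10-point, 25 μM top) in Tris pH 8.0 buffer containing BGG and Triton X-100. Substrate turnover ran 45 min at room temperature and was stopped with 10 mM citric acid.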
As for `CO[C@@H](C)CO[C@H]1CN(c2ccc3c(n2)CC[C@H](NC(=O)c2sc4nc(C)ccc4c2N)C3)C[C@@H]1N` [Example 481, 3-amino-N-[(6S)-2-[(3S,4S)-3-amino-4-[(2S)-2-methoxypropoxy]pyrrolidin-1-yl]-5,6,7,8-tetrahydroquinolin-6-yl]-6-methylthieno[2,3-b]pyridine-2-carboxamide], the IC50 was 50 to 200 nM.
The same measure, in the same setting: in the case of `Cc1ccc2c(N)c(C(=O)N[C@H]3CCc4nc(N5C[C@@H](COC(F)F)[C@@H](N)C5)ccc4C3)sc2n1` [Example 516, 3-amino-N-[(6S)-2-[(3R,4R)-3-amino-4-[(difluoromethoxy)methyl]pyrrolidin-1-yl]-5,6,7,8-tetrahydroquinolin-6-yl]-6-methylthieno[2,3-b]pyridine-2-carboxamide] it was 50 to 200 nM; in that of `CN[C@H]1CN(c2ccc3c(n2)CC[C@H](NC(=O)c2sc4nc(C)cnc4c2N)C3)C[C@@H]1OC` [Example 490, 7-amino-N-[(6S)-2-[(3S,4S)-3-methoxy-4-(methylamino)pyrrolidin-1-yl]-5,6,7,8-tetrahydroquinolin-6-yl]-3-methylthieno[2,3-b]pyrazine-6-carboxamide], 50 to 200 nM.
For the compound `CO[C@@H]1CN(c2ccc3c(n2)CC[C@H](NC(=O)c2sc4nc(C)cnc4c2N)C3)C[C@@H]1N` [Example 491, 7-amino-N-[(6S)-2-[(3S,4R)-3-amino-4-methoxypyrrolidin-1-yl]-5,6,7,8-tetrahydroquinolin-6-yl]-3-methylthieno[2,3-b]pyrazine-6-carboxamide], the IC50 lay in the range of 50 to 200 nM.

Still in this assay, the particulars now being: biochemical IC50 range, Ubiquitin-Rhodamine 110 assay, read-out: USP28 A-1(a).
In the case of `Cc1ccc2c(N)c(C(=O)N[C@H]3COc4cc(N5CC6[C@H](C5)NCC6(F)F)ccc4C3)sc2n1` (stereo partly drawn) [Example 655, N-[(3R)-7-[(6aR)-3,3-difluorooctahydropyrrolo[3,4-b]pyrrol-5-yl]-3,4-dihydro-2H-1-benzopyran-3-yl]-3-amino-6-methylthieno[2,3-b]pyridine-2-carboxamide], the IC50 was in the range of 1 to 50 nM.
On the same count and under the same terms, in the case of `CN[C@@H]1CN(c2cc(F)c3c(c2)OC[C@H](NC(=O)c2sc4nc(C)ncc4c2N)C3)C[C@H]1COC` [Example 695, 5-amino-N-[(3R)-5-fluoro-7-[(3R,4S)-3-(methoxymethyl)-4-(methylamino)pyrrolidin-1-yl]-3,4-dihydro-2H-1-benzopyran-3-yl]-2-methylthieno[2,3-d]pyrimidine-6-carboxamide] it was 200 to 2000 nM; in that of `Cc1ccc2c(N)c(C(=O)N[C@H]3COc4cc(N5C[C@H](N)[C@@]6(C5)OCC[C@@H]6C)ccc4C3)sc2n1` [Example 612-1, 3-amino-N-[(3R)-7-[(4S,5R,9S)-9-amino-4-methyl-1-oxa-7-azaspiro[4.4]nonan-7-yl]-3,4-dihydro-2H-1-benzopyran-3-yl]-6-methylthieno[2,3-b]pyridine-2-carboxamide], 1 to 50 nM.
On the same count and under the same terms, then `CCn1cc(Cl)c2cc(C(=O)N[C@H]3COc4cc(N5C[C@H](OC)[C@@H](N)C5)ccc4C3)nnc21` [Example 696, N-[(3R)-7-[(3S,4S)-3-amino-4-methoxypyrrolidin-1-yl]-3,4-dihydro-2H-1-benzopyran-3-yl]-5-chloro-7-ethyl-7Hpyrrolo[2,3-c]pyridazine-3-carboxamide], with 200 to 2000 nM; and `CCNC1CN(c2ccc3c(c2)OCC(NC(=O)c2sc4nc(C)ccc4c2N)C3)CC1COC` [Example 668, 3-amino-N-[(3R)-7-[(3R,4S)-3-(ethylamino)-4-(mcthoxymcthyl)pyrrolidin-1-yl]-3,4-dihydro-2H-1-benzopyran-3-yl]-6-methylthicno[2,3-b]pyridinc-2-carboxamide], with 1 to 50 nM; and `Cc1ccc2c(N)c(C(=O)N[C@H]3COc4cc(OC[C@@H]5CNCC5(F)F)ccc4C3)sc2n1` [Example 685, 3-amino-N-[(3R)-7-{[(3S)-4,4-difluoropyrrolidin-3-yl]methoxy}-3,4-dihydro-2H-1-benzopyran-3-yl]-6-methylthieno[2,3-b]pyridine-2-carboxamide], with 1 to 50 nM.
The same measure, in the same setting: then `Cc1ccc2c(N)c(C(=O)N[C@H]3COc4cc(N5C[C@H](N)[C@]6(CCCCO6)C5)ccc4C3)sc2n1` [Example 652, 3-amino-N-[(3R)-7-[(4S,5S)-4-amino-6-oxa-2-azaspiro[4.5]decan-2-yl]-3,4-dihydro-2H-1-benzopyran-3-yl]-6-methylthieno[2,3-b]pyridine-2-carboxamide], with 1 to 50 nM; and `CCOc1ncc(C(=O)N[C@H]2COc3cc(N4CCNCC4)ccc3C2)c2c1CCCN2` [Example 678, 5-ethoxy-N-[(3R)-7-(piperazin-1-yl)-3,4-dihydro-2H-1-benzopyran-3-yl]-1,2,3,4-tetrahydro-1,6-naphthyridine-8-carboxamide], with 1 to 50 nM.
For the compound `CO[C@H]1CN(c2cc(F)c3c(c2)OC[C@H](NC(=O)c2sc4nc(C)ncc4c2N)C3)C[C@@H]1N` [Example 693, 5-amino-N-[(3R)-7-[(3S,4S)-3-amino-4-methoxypyrrolidin-1-yl]-5-fluoro-3,4-dihydro-2H-1-benzopyran-3-yl]-2-methylthieno[2,3-d]pyrimidine-6-carboxamide], the IC50 lay in the range of 200 to 2000 nM.
Turning to `CO[C@H]1CCCN(c2cc(F)c3c(c2)OC[C@H](NC(=O)c2sc4nc(C)ccc4c2N)C3)C[C@H]1N` [Example 691, 3-amino-N-[(3R)-7-[(3R,4S)-3-amino-4-methoxyazepan-1-yl]-5-fluoro-3,4-dihydro-2H-1-benzopyran-3-yl]-6-methylthieno[2,3-b]pyridine-2-carboxamide], the IC50 was in the range of 50 to 200 nM.
For `Cc1ccc2c(N)c(C(=O)N[C@H]3COc4cc(N5C[C@H](N)[C@@]6(CCCCO6)C5)ccc4C3)sc2n1` [Example 611-1, 3-amino-N-[(3R)-7-[(4S,5R)-4-amino-6-oxa-2-azaspiro[4.5]decan-2-yl]-3,4-dihydro-2H-1-benzopyran-3-yl]-6-methylthieno[2,3-b]pyridine-2-carboxamide], the IC50 lay in the range of 1 to 50 nM.
Regarding `Cc1ccc2c(N)c(C(=O)N[C@H]3COc4cc(N5C[C@H](COC(F)(F)F)[C@H](N)C5)ccc4C3)sc2n1` [Example 673, 3-amino-N-[(3R)-7-[(3S,4S)-3-amino-4-[(trifluoromethoxy)methyl]pyrrolidin-1-yl]-3,4-dihydro-2H-1-benzopyran-3-yl]-6-methylthieno[2,3-b]pyridine-2-carboxamide], the IC50 is 1 to 50 nM.
`COC[C@@H]1CN(c2cc(F)c3c(c2)OC[C@H](NC(=O)c2sc4nc(C)ncc4c2N)C3)C[C@@H]1N` [Example 694, 5-amino-N-[(3R)-7-[(3R,4R)-3-amino-4-(methoxymethyl)pyrrolidin-1-yl]-5-fluoro-3,4-dihydro-2H-1-benzopyran-3-yl]-2-methylthieno[2,3-d]pyrimidine-6-carboxamide]: the IC50 is 200 to 2000 nM.
With `CCOc1ncc(C(=O)N[C@H]2COc3cc(N4CCNCC4)ccc3C2)c2[nH]ccc12` [Example 676, 4-ethoxy-N-[(3R)-7-(piperazin-1-yl)-3,4-dihydro-2H-1-benzopyran-3-yl]-1Hpyrrolo[3,2-c]pyridine-7-carboxamide], the IC50 lay in the range of 200 to 2000 nM.
On the same count and under the same terms, in the case of `CN[C@@H]1CN(c2ccc3c(c2)OC[C@H](NC(=O)c2sc4nc(C)ccc4c2N)C3)C[C@@H]1COC` [Example 680, 3-amino-N-[(3R)-7-[(3S,4S)-3-(methoxymethyl)-4-(methylamino)pyrrolidin-1-yl]-3,4-dihydro-2H-1-benzopyran-3-yl]-6-methylthieno[2,3-b]pyridine-2-carboxamide] it was 1 to 50 nM.

The values are drawn from patent US12162888B2, “Carboxamides as ubiquitin-specific protease inhibitors” (Valo Early Discovery, Inc., priority 2018, dated 2024).
